Columns and labels:
[1] = test system: gastric adenocarcinoma (SGC-7901) cells; test: MTT antiproliferative assay, SGC-7901; assay type: cell-based, human; conditions: mean±SD of 3 experiments
Procedure: (§1) In vitro antiproliferative activity against three human tumor cell lines, including gastric adenocarcinoma (SGC-7901), oral carcinoma (KB) and fibrosarcoma (HT-1080), was evaluated using the MTT assay with cis-platinum (Cpt) as the positive control.
(§2) The antiproliferative activity of the synthetic compounds was measured by 3-(4, 5- dimethylthiazol-2-yl)-2, 5-diphenyltetrazolium bromide (MTT) assay. Cells were seeded in 96-well plates (Corning, NY, USA) at a density of 8×10^3 per well. After 24 h of incubation, cells were treated with different concentrations (0.1, 0.3, 1, 3 and 10 μg/ml) of the EM-A dimers for the indicated time periods. Afterwards, MTT (Sigma, St. Louis, MO) solution [5.0 mg/ml in phosphate-buffered saline (PBS)] was added (20 μl/well) and incubated for another 4 h at 37°C. The purple formazan crystals were then dissolved in 100 μl dimethyl sulfoxide (DMSO). After 5 min, the plates were read on a plate microreader (TECANSPECTRA, Wetzlar, Germanay) at 490 nm. The IC50 values were obtained using the software of Dose–Effect Analysis with Microcomputers and were defined as concentration of drug causing 50% inhibition in absorbance compared with control cells. Assays were performed in triplicate from three independent experiments.

[2] = test system: fibrosarcoma (HT-1080) cells; test: MTT antiproliferative assay, HT-1080; assay type: cell-based, human; conditions: mean±SD of 3 experiments
Procedure: as §1, §2

[3] = test system: normal mouse fibroblast cells (L929); test: MTT assay, toxicity against normal fibroblasts L929; assay type: cell-based
Procedure: as §2

[4] = test system: oral carcinoma (KB) cells; test: MTT antiproliferative assay, KB; assay type: cell-based, human; conditions: 24 h of drug exposure, mean±SD of 3 experiments
Procedure: as §1, §2

[5] = test system: breast carcinoma (MCF-7) cells; test: MTT antiproliferative assay, MCF-7; assay type: cell-based, human; conditions: 24 h of drug exposure, mean±SD of 3 experiments
Procedure: (§3) All cell lines were purchased from American Type Culture Collection (ATCC, Manassas, VA, USA). Non-small cell lung carcinoma cells (A549), hepatocellular carcinoma cells (HepG-2) and breast carcinoma cells (MCF-7) were cultured in DMEM medium (Sigma, St. Louis, MO, USA), while gastric carcinoma cells (BGC-823), laryngeal carcinoma cells (Hep2), cervical carcinoma cells (HeLa) were cultured in RPMI-1640 medium (Sigma, St. Louis, MO, USA), which were supplemented with 10% fetal bovine serum (FBS; TBD, Tianjin, China) at 37°C in humidified atmosphere with 5% CO2.
as §2, with “The IC50 values were obtained using the software of Dose–Effect Analysis with Microcomputers and were defined as concentration of drug causing 50% inhibition in absorbance compared with control cells. Assays were performed in triplicate from three independent experiments.” left out

[6] = test system: cervical carcinoma (HeLa) cells; test: MTT antiproliferative assay, HeLa; assay type: cell-based, human; conditions: 24 h of drug exposure, mean±SD of 3 experiments
Procedure: as §3
as §2, with “The IC50 values were obtained using the software of Dose–Effect Analysis with Microcomputers and were defined as concentration of drug causing 50% inhibition in absorbance compared with control cells. Assays were performed in triplicate from three independent experiments.” left out

[7] = test system: gastric carcinoma (BGC-823) cells; test: MTT antiproliferative assay, BGC-823; assay type: cell-based, human; conditions: 24 h of drug exposure, mean±SD of 3 experiments
Procedure: as §3
as §2, with “The IC50 values were obtained using the software of Dose–Effect Analysis with Microcomputers and were defined as concentration of drug causing 50% inhibition in absorbance compared with control cells. Assays were performed in triplicate from three independent experiments.” left out

[8] = test system: hepatocellular carcinoma (HepG-2) cells; test: MTT antiproliferative assay, HepG-2; assay type: cell-based, human; conditions: 24 h of drug exposure, mean±SD of 3 experiments
Procedure: as §3
as §2, with “The IC50 values were obtained using the software of Dose–Effect Analysis with Microcomputers and were defined as concentration of drug causing 50% inhibition in absorbance compared with control cells. Assays were performed in triplicate from three independent experiments.” left out

[9] = test system: laryngeal carcinoma (Hep2) cells; test: MTT antiproliferative assay, Hep2; assay type: cell-based, human; conditions: 24 h of drug exposure, mean±SD of 3 experiments
Procedure: as §3
as §2, with “The IC50 values were obtained using the software of Dose–Effect Analysis with Microcomputers and were defined as concentration of drug causing 50% inhibition in absorbance compared with control cells. Assays were performed in triplicate from three independent experiments.” left out

[10] = test system: non-small cell lung carcinoma (A549) cells; test: MTT antiproliferative assay, A549; assay type: cell-based, human; conditions: 24 h of drug exposure, mean±SD of 3 experiments
Procedure: as §3
as §2, with “The IC50 values were obtained using the software of Dose–Effect Analysis with Microcomputers and were defined as concentration of drug causing 50% inhibition in absorbance compared with control cells. Assays were performed in triplicate from three independent experiments.” left out

[11] = Homo sapiens, SGC-7901, 24 h of drug exposure
[12] = Homo sapiens, HT-1080, 24 h of drug exposure

IC50 [1, 11]	IC50 [2, 12]	IC50 ([4]; Homo sapiens, KB)	Compound	IC50 ([3]; L929, 24 h of drug exposure)	IC50 [5]	IC50 [6]	IC50 ([1]; 24 h of drug exposure)	IC50 [7]	IC50 [8]	IC50 ([2]; 24 h of drug exposure)	IC50 [9]	IC50 ([3]; 24 h of drug exposure)	IC50 [10]	IC50 [4]
30.6 ± 2.8 µM	23.7 ± 2.2 µM	26.4 ± 2.4 µM	CCC1OC(=O)C(C)C(O)C(C)C(OC2OC(C)CC(N(C)CC=CCN(C)C3CC(C)OC(OC4C(C)C(OC5CC(C)(OC)C(O)C(C)O5)C(C)C(=O)OC(CC)C(C)(O)C(O)C(C)C(=NO)C(C)CC4(C)OC)C3O)C2O)C(C)(OC)CC(C)C(=NO)C(C)C(O)C1(C)O (stereo not drawn) [Compound 1j]	> 100 µM	–	–	–	–	–	–	–	–	–	–
–	–	–	N.N.[Cl][Pt][Cl] [Cpt, cis-platinum]	–	2.9 ± 0.1 µM	17.4 ± 1.4 µM	4.9 ± 0.4 µM	11.8 ± 0.2 µM	4.7 ± 0.4 µM	19.7 ± 1.5 µM	12.3 ± 1.3 µM	18.5 µM	5.8 ± 0.2 µM	4.7 ± 0.3 µM
> 100 µM	> 100 µM	> 100 µM	CC[C@H]1OC(=O)[C@H](C)[C@@H](O[C@H]2C[C@@](C)(OC)[C@@H](O)[C@H](C)O2)[C@H](C)[C@@H](O[C@@H]2O[C@H](C)C[C@H](N(C)C)[C@H]2O)[C@](C)(OC)C[C@@H](C)C(=O)[C@H](C)[C@@H](O)[C@]1(C)O [clarithromycin, reference compound]	> 100 µM	–	–	–	–	–	–	–	–	–	–

Source: article PMC4957748, “Development of Novel Erythromycin Derivatives with Inhibitory Activity against Proliferation of Tumor Cells” (PLoS ONE, 2016)
